19 molecules from US20080070867A1, “2-Imidazolone and 2-Imidazolidinone Heterocyclic Inhibitors of Tyrosine Phosphatases” (Metabasis Therapeutics, Inc., priority 2005, published 2008) can be followed below.

The assay deals with T1, Human recombinant PTP-1B (Homo sapiens, UniProt P18031).
T1 construct: Human recombinant PTP-1B, containing amino acids 1-321, fused to GST enzyme; GST (glutathione S-transferase)
T1 sequence (P18031 1-321): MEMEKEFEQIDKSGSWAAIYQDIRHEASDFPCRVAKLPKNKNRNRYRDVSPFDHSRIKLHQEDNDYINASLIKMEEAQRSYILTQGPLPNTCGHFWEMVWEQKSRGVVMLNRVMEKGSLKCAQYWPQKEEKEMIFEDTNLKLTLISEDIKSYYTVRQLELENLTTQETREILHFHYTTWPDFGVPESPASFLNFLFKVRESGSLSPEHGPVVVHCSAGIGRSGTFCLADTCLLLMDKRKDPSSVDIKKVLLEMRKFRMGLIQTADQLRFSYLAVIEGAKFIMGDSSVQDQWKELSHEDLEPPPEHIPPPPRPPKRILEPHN
The assay is described as follows: Assay for PTP-1B Activity (pNPP substrate). It counts as biochemical. Particulars: human recombinant PTP-1B (1-321) GST fusion, 2 mM pNPP, pH 7.4, 30° C., 20 min; read-out: Activity Code (IC50 range). The source says: The activity of the compounds as modulators of protein tyrosine phosphatase, including PTP-1B, may be measured in standard assays (see, e.g., Examples 41 and 42). Briefly, the assay described herein employs human recombinant PTP-1B and a pNPP substrate in a rescue assay.
Assay for PTP-1B Activity
Enzyme: Human recombinant PTP-1B, containing amino acids 1-321, fused to GST enzyme (glutathione S-transferase) purified by affinity chromatography (Huyer et al, 1997, J. Biol. Chem., 272, 843-852).
pNPP: p-Nitrophenyl Phosphate (Calbiochem)
Assay Buffer: 50 mM HEPES (pH 7.4), 100 mM NaCl, 2 mM EDTA, 3 mM DTT
(5×) pNPP substrate: 10 mM pNPP in assay buffer
Enzyme: 1 mg/ml PTP1B (1-321), dilute 1:200 in assay buffer
Assay buffer: 50 mM HEPES (pH 7.4), 100 mM NaCl, 2 mM EDTA, 3 mM DTT
Enzyme dilution buffer: 50 mM HEPES (pH 7.4), 100 mM NaCl, 2 mM EDTA, 3 mM DTT
Substrate 198 mM p-Nitrophenyl Phosphate (pNPP) store at 4° C.
The assay was carried out at 30° C. in 96 well plates. The reaction mixture in 60 ul contained 50 mM HEPES (pH 7.4), 100 mM NaCl, 2 mM EDTA, 3 mM DTT, and 2 mM p-Nitrophenyl Phosphate (pNPP). 5 ul of the test compound (inhibitor) dissolved in DMSO or DMSO alone for control was added to each well and the plate was mixed for 2 min. The reaction was initiated by adding 20 ul of diluted PTP1B (5 ng/ul in 50 mM HEPES (pH 7.4), 100 mM NaCl, 2 mM EDTA, 3 mM DTT). After 20 min at 30° C., the enzyme reaction was terminated by adding 100 ul of 2 M K2CO3 to each well. The phosphatase activity was detected by using Victor II plate reader (Wallac) with absorbance detection at 405 nm. All the assays were done at least in duplicate. The initial rate of pNP is plotted against the concentration of inhibitor.

On to `CC(C)(C)C(=O)OCOP(=O)(O)C(F)(F)c1ccc(Cn2c(-c3ccc(S(C)(=O)=O)cc3)cn(Cc3ccccc3)c2=O)cc1Br` [Compound 76, 2,2-Dimethyl-propionic acid ({4-[3-benzyl-5-(4-methanesulfonyl-phenyl)-2-oxo-2,3-dihydro-imidazol-1-ylmethyl]-2-bromo-phenyl}-difluoro-methyl)-hydroxy-phosphinoyloxymethyl ester], for which the IC50 was 250 to 2500 nM.

Take `CCOC(=O)c1ccc(-n2ccn(Cc3ccc(C(F)(F)P(=O)(O)O)c(Br)c3)c2=O)cc1` [Compound 61, 4-{3-[3-Bromo-4-(difluoro-phosphono-methyl)-benzyl]-2-oxo-2,3-dihydro-imidazol-1-yl}-benzoic acid ethyl ester]: the IC50 is 250 to 2500 nM.

Turning to `CCOC(=O)n1cc(-c2ccc(C#N)cc2)n(Cc2ccc(C(F)(F)P(=O)(O)O)c(Br)c2)c1=O` [Compound 75, 3-[3-Bromo-4-(difluoro-phosphono-methyl)-benzyl]-4-(4-cyano-phenyl)-2-oxo-2,3-dihydro-imidazole-1-carboxylic acid ethyl ester], the IC50 lay in the range of 100 to 249 nM.

Turning to `N#Cc1ccc(-c2c[nH]c(=O)n2Cc2ccc(C(F)(F)P(=O)(O)O)c(Br)c2)cc1` [Compound 78, ({2-Bromo-4-[5-(4-cyano-phenyl)-2-oxo-2,3-dihydro-imidazol-1-ylmethyl]-phenyl}-difluoro-methyl)-phosphonic acid], the half-inhibitory concentration (IC50) lay within 100 to 249 nM.

For `O=c1n(Cc2ccccc2)cc(-c2ccc3c(c2)OCCO3)n1Cc1ccc(C(F)(F)P(=O)(O)O)c(Br)c1` [Compound 30, ({4-[3-Benzyl-5-(2,3-dihydro-benzo[1,4]dioxin-6-yl)-2-oxo-2,3-dihydro-imidazol-1-ylmethyl]-2-bromo-phenyl}-difluoro-methyl)-phosphonic acid], the IC50 is 250 to 2500 nM.

With `CC(C)OC(=O)OC(C)OP(=O)(O)C(F)(F)c1ccc(Cn2c(-c3ccc(Cl)cc3)cn(Cc3ccccc3)c2=O)cc1Br` (stereo not shown) [Compound 72, ({4-[3-Benzyl-5-(4-chloro-phenyl)-2-oxo-2,3-dihydro-imidazol-1-ylmethyl]-2-bromo-phenyl}-difluoro-methyl)-phosphonic acid mono-(1-isopropoxy-carbonyloxy-ethyl) ester], the IC50 is 2500 to 25000 nM.

For `CC(C)OC(=O)OC(C)OP(=O)(O)C(F)(F)c1ccc(Cn2c(-c3ccc(S(C)(=O)=O)cc3)cn(Cc3ccccc3)c2=O)cc1Br` (stereo not shown) [Compound 79, ({4-[3-Benzyl-5-(4-methanesulfonyl-phenyl)-2-oxo-2,3-dihydro-imidazol-1-ylmethyl]-2-bromo-phenyl}-difluoro-methyl)-phosphonic acid mono-(1-isopropoxy-carbonyloxy-ethyl) ester], the IC50 lay in the range of 100 to 249 nM.

As for `O=C(O)COc1ccc(Cn2ccn(Cc3ccc(C(F)(F)P(=O)(O)O)c(Br)c3)c2=O)cc1Cl` [Compound 83, (4-{3-[3-Bromo-4-(difluoro-phosphono-methyl)-benzyl]-2-oxo-2,3-dihydro-imidazol-1-ylmethyl}-2-chloro-phenoxy)-acetic acid], the IC50 lay in the range of 250 to 2500 nM.

`CC(C)(C)C(=O)OCOP(=O)(O)C(F)(F)c1ccc(Cn2c(-c3ccc(C#N)cc3)cn(Cc3ccccc3)c2=O)cc1Br` [Compound 56, 2,2-Dimethyl-propionic acid ({4-[3-benzyl-5-(4-cyano-phenyl)-2-oxo-2,3-dihydro-imidazol-1-ylmethyl]-2-bromo-phenyl}-difluoro-methyl)-hydroxy-phosphinoyloxymethyl ester]: the IC50 is 2500 to 25000 nM.

As to `COC(=O)c1ccc(-c2cn(C3CC3)c(=O)n2Cc2ccc(C(F)(F)P(=O)(O)O)c(Br)c2)cc1` [Compound 24, 4-{3-[3-Bromo-4-(difluoro-phosphono-methyl)-benzyl]-1-cyclopropyl-2-oxo-2,3-dihydro-1H-imidazol-4-yl}-benzoic acid methyl ester], the IC50 was 100 to 249 nM.

`CCOC(=O)n1cc(-c2ccc(C(=O)OC)cc2)n(Cc2ccc(C(F)(F)P(=O)(O)O)c(Br)c2)c1=O` [Compound 37, 3-[3-Bromo-4-(difluoro-phosphono-methyl)-benzyl]-4-(4-methoxycarbonyl-phenyl)-2-oxo-2,3-dihydro-imidazole-1-carboxylic acid ethyl ester]: the IC50 was in the range of 250 to 2500 nM.

Consider `CC(C)(C)C(=O)OCOC(=O)c1ccc(-c2cn(Cc3ccccc3)c(=O)n2Cc2ccc(C(F)(F)P(=O)(O)OCOC(=O)C(C)(C)C)c(Br)c2)cc1` [Compound 53, 4-[1-Benzyl-3-(3-bromo-4-{[(2,2-dimethyl-propionyloxy-methoxy)-hydroxy-phosphoryl]-difluoro-methyl}-benzyl)-2-oxo-2,3-dihydro-1H-imidazol-4-yl]-benzoic acid 2,2-dimethyl-propionyloxymethyl ester], for which the IC50 is 2500 to 25000 nM.

On to `CS(=O)(=O)c1ccc(-c2cn(Cc3ccccc3)c(=O)n2Cc2ccc(C(F)(F)P(=O)(O)O)c(Br)c2)cc1` [Compound 17, ({4-[3-Benzyl-5-(4-methanesulfonyl-phenyl)-2-oxo-2,3-dihydro-imidazol-1-ylmethyl]-2-bromo-phenyl}-difluoro-methyl)-phosphonic acid], for which the IC50 is less than 99 nM.

Turning to `O=c1n(Cc2ccccc2)ccn1Cc1ccc(C(F)(F)P(=O)(O)O)c(Br)c1` [Compound 71, {[4-(3-Benzyl-2-oxo-2,3-dihydro-imidazol-1-ylmethyl)-2-bromo-phenyl]-difluoro-methyl}-phosphonic acid], the IC50 was in the range of 2500 to 25000 nM.

For `O=c1[nH]ccn1Cc1ccc(C(F)(F)P(=O)(O)O)c(Br)c1` [Compound 87, {[2-Bromo-4-(2-oxo-2,3-dihydro-imidazol-1-ylmethyl)-phenyl]-difluoro-methyl}-phosphonic acid], the IC50 lay in the range of 2500 to 25000 nM.

As to `COC(=O)c1ccc(-c2cn(Cc3cc(OC)cc(OC)c3)c(=O)n2Cc2ccc(C(F)(F)P(=O)(O)O)c(Br)c2)cc1` [Compound 23, 4-[3-[3-Bromo-4-(difluoro-phosphono-methyl)-benzyl]-1-(3,5-dimethoxy-benzyl)-2-oxo-2,3-dihydro-1H-imidazol-4-yl]-benzoic acid methyl ester], the IC50 was less than 99 nM.

For the molecule `CCOC(=O)n1cc(-c2ccc(S(C)(=O)=O)cc2)n(Cc2ccc(C(F)(F)P(=O)(O)O)c(Br)c2)c1=O` [Compound 1, 3-[3-Bromo-4-(difluoro-phosphono-methyl)-benzyl]-4-(4-methanesulfonyl-phenyl)-2-oxo-2,3-dihydro-imidazole-1-carboxylic acid ethyl ester], the IC50 was in the range of 100 to 249 nM.

In the case of `CC(C)OC(=O)OC(C)OC(=O)c1ccc(-c2cn(Cc3ccccc3)c(=O)n2Cc2ccc(C(F)(F)P(=O)(O)OC(C)OC(=O)OC(C)C)c(Br)c2)cc1` (stereo not shown) [Compound 59, 4-[1-Benzyl-3-(3-bromo-4-{difluoro-[hydroxy-(1-isopropoxy-carbonyloxy-ethoxy)-phosphoryl]-methyl}-benzyl)-2-oxo-2,3-dihydro-1H-imidazol-4-yl]-benzoic acid 1-isopropoxy-carbonyloxy-ethyl ester], the IC50 was 2500 to 25000 nM.

For the molecule `CCCCCCCCCCCCCCCCOCCCOP(=O)(O)C(F)(F)c1ccc(Cn2c(-c3ccc(S(C)(=O)=O)cc3)c[nH]c2=O)cc1Br` [Compound 84, ({2-Bromo-4-[5-(4-methanesulfonyl-phenyl)-2-oxo-2,3-dihydro-imidazol-1-ylmethyl]-phenyl}-difluoro-methyl)-phosphonic acid mono-(3-hexadecyloxy-propyl) ester], the concentration for half-maximal inhibition (IC50) fell in the range of 2500 to 25000 nM.

What is called IC50 is the concentration that gives 50% inhibition.
